Test results published in patent US20180360803A1, “PHARMACEUTICAL COMPOSITION FOR TREATMENT OR PREVENTION OF NASH” (UBE INDUSTRIES, LTD., priority 2015, published 2018).

Experiments:
[1] = molecular target: T1, human LPA1 (Homo sapiens, UniProt Q92633); assay: Test of LPA1 antagonism ([35S]GTPγS binding, membrane fraction of RH 7777 cells expressing human LPA1); type: biochemical; settings: LPA 100 nM, read-out: IC50, concentration required for 50% inhibition of the binding of LPA1 and [35S]GTPγS
T1 construct: purchased ChanTest A324; host or cells: RH 7777 cells (recombinant expression of human LPA1)
T1 sequence (Q92633 whole entry): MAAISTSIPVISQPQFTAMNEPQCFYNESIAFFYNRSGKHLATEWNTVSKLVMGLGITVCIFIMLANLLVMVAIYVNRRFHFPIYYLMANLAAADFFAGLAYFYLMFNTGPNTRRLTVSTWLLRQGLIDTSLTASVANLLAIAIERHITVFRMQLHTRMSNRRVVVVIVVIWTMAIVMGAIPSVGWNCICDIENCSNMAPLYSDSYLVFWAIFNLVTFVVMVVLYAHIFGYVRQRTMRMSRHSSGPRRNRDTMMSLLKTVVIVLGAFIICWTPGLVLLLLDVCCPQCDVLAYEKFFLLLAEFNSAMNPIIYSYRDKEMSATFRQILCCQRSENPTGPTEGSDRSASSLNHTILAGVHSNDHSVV
Experimental: 5 μg of a membrane fraction of RH 7777 cells expressing human LPA1 (A324, ChanTest) was suspended in a reaction buffer (20 mM HEPES, 100 mM NaCl, 10 mM MgCl2, 10 μM GDP, 5 μg saponin, 0.2% BSA, 0.1 nM [^35S]GTPγS (NEG030X, Perkin Elmer), pH 7.4). The test compounds dissolved in DMSO in various concentrations were each added to the suspension. After preincubation at 30° C. for 15 minutes, LPA (L7260, Sigma, final concentration 100 nM) was added, and the suspensions were incubated at 30° C. for 30 minutes. The membrane fractions were collected on a glass fiber filter (GF/B, Whatman) by using a cell harvester (M30, Brandel), and were washed with a 10 mM phosphate buffer (pH 7.4). The radioactivity of the membrane fractions was measured with a liquid scintillation analyzer (2900TR, Packard). The concentration (IC50) of the test compound required for 50% inhibition of the binding of LPA1 and [^35S]GTPγS was determined by non-linear regression analysis using EXSAS (Arm Systex).

[2] = tested on: STAM mice (NASH models); assay: Non-alcoholic steatohepatitis (NASH) mouse models (STAM mice); type: in vivo; settings: for NAFLD Activity score, compound administered group: 30 mg/kg twice daily orally for 3 weeks, age of six to nine weeks; for reduction in NAFLD activity score (statistical significance): versus vehicle group
Experimental: STAM (registered trademark) mice (Stelic Institute & Co., Inc.) were used as NASH models. The STAM (registered trademark) mice were prepared by subcutaneously administering 200 μg of streptozotocin (Sigma Aldrich) one time to the back of 2-day old male mice and feeding the mice with a high fat diet (High Fat Diet 32, CLEA Japan, Inc.) from the age of 4 weeks (Medical Molecular Morphology, 46 (2013) pp. 141-152).
The test compound was orally administered every day from the age of 5 or 6 weeks. At the age of 9 or 10 weeks, bloods and livers were collected under anesthesia. The bloods were subjected to biochemical tests. After the wet weights of the livers were measured, RNA was extracted from portions of the livers, and the expression levels of the inflammation and fibrosis marker genes were measured by the quantitative PCR method. Further, the amounts of hydroxyproline or collagen in the livers were measured. Paraffin sections or frozen sections were prepared from portions of the livers and were subjected to histopathological tests to determine the NAFLD activity scores, the fibrosis areas or the inflammation areas. The results were statistically analyzed using EXSUS (CAC EXICARE CORPORATION) or Prism 4 (GraphPad Software, Inc.).

SMILES: COc1cc(-c2sc(Cl)cc2NC(=O)O[C@H](C)c2ccccc2)ccc1-c1ccc(C2(C(=O)O)CC2)cc1 [Production Example 6, (R)-1-[4′-(5-chloro-3-{[(1-phenylethoxy)carbonyl]amino}thiophen-2-yl)-2′-methoxy-[1,1′-biphenyl]-4-yl]cyclopropanecarboxylic acid]
- IC50 [1]: ≤ 100 nM
- NAFLD Activity score, compound administered group [2]: 2.8 ± 1.0
- reduction in NAFLD activity score (statistical significance) [2]: significant (p<0.05) reduction

SMILES: Cc1cscc1[C@@H](C)OC(=O)Nc1cc(F)sc1-c1ccc(-c2ccc(C3(C(=O)O)CC3)cc2)cc1 [Production Example 7, (R)-1-{4′-[5-fluoro-3-({[1-(4-methylthiophen-3-yl)ethoxy]carbonyl}amino)thiophen-2-yl]-[1,1′-biphenyl]-4-yl}cyclopropanecarboxylic acid]
- IC50 [1]: ≤ 100 nM

SMILES: COc1cc(-c2sc(F)cc2NC(=O)O[C@H](C)c2ccccc2Cl)ccc1-c1ccc(C2(C(=O)O)CC2)cc1 [Production Example 8, (R)-1-{4′-[3-({[1-(2-chloropheny)ethoxy]carbonyl}amino)-5-fluorothiophen-2-yl]-2′-methoxy-[1,1′-biphenyl]-4-yl}cyclopropanecarboxylic acid]
- IC50 [1]: ≤ 100 nM

SMILES: COc1cc(-c2sc(Cl)cc2NC(=O)O[C@H](C)c2cc(F)ccc2F)ccc1-c1ccc(C2(C(=O)O)CC2)cc1 [Production Example 9, (R)-1-{4′-[5-chloro-3-({[1-(2,5-difluorophenyl)ethoxy]carbonyl}amino)thiophen-2-yl]-2′-methoxy-[1,1′-biphenyl]-4-yl}cyclopropanecarboxylic acid]
- NAFLD Activity score, compound administered group [2]: 3.1 ± 1.4
- reduction in NAFLD activity score (statistical significance) [2]: significant (p<0.05) reduction
